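In this assay, cells in 96-well plates receive the compound at five concentrations for 48 hours. Endpoints are linearly interpolated between the surrounding concentrations. GI50 = concentration required for 50% inhibition of growth. At the TGI there is no net growth.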
Experiments:
Assay in all cases: growth of human tumour cells (NCI), 48 h
HOP-92 NSCLC = system: HOP-92 NSCLC
COLO 205 colon = system: COLO 205 colon
A549 NSCLC = system: A549 NSCLC
LOX IMVI melanoma = system: LOX IMVI melanoma
MDA-MB-435 = system: MDA-MB-435
SK-MEL-5 melanoma = system: SK-MEL-5 melanoma
HCC-2998 colon = system: HCC-2998 colon
OVCAR-3 ovarian = system: OVCAR-3 ovarian
MDA-MB-231 breast = system: MDA-MB-231 breast
KM12 colon = system: KM12 colon
T-47D breast = system: T-47D breast
NCI-H460 lung = system: NCI-H460 lung
DU-145 prostate = system: DU-145 prostate
NCI-H226 lung = system: NCI-H226 lung
EKVX NSCLC = system: EKVX NSCLC
SF-539 CNS = system: SF-539 CNS
NCI/ADR-RES ovarian = system: NCI/ADR-RES ovarian
SK-MEL-28 melanoma = system: SK-MEL-28 melanoma
TK-10 renal = system: TK-10 renal
UACC-62 melanoma = system: UACC-62 melanoma
SF-268 CNS = system: SF-268 CNS
SN12C renal = system: SN12C renal
RPMI-8226 leukemia = system: RPMI-8226 leukemia
MOLT-4 leukemia = system: MOLT-4 leukemia
HL-60(TB) leukemia = system: HL-60(TB) leukemia
SNB-19 CNS = system: SNB-19 CNS
786-0 renal = system: 786-0 renal
BT-549 breast = system: BT-549 breast
A498 renal = system: A498 renal
SW-620 colon = system: SW-620 colon
UACC-257 melanoma = system: UACC-257 melanoma
U251 CNS = system: U251 CNS
SNB-75 CNS = system: SNB-75 CNS
PC-3 prostate = system: PC-3 prostate
CCRF-CEM leukemia = system: CCRF-CEM leukemia
HOP-62 NSCLC = system: HOP-62 NSCLC
HCT-116 colon = system: HCT-116 colon
NCI-H23 lung = system: NCI-H23 lung
HT29 colon = system: HT29 colon
MALME-3M melanoma = system: MALME-3M melanoma
SK-OV-3 ovarian = system: SK-OV-3 ovarian
SR leukemia = system: SR leukemia
HCT-15 colon = system: HCT-15 colon
K-562 leukemia = system: K-562 leukemia
IGROV1 ovarian = system: IGROV1 ovarian
ACHN renal = system: ACHN renal
OVCAR-5 ovarian = system: OVCAR-5 ovarian
M14 melanoma = system: M14 melanoma
SK-MEL-2 melanoma = system: SK-MEL-2 melanoma
OVCAR-4 ovarian = system: OVCAR-4 ovarian
CAKI-1 renal = system: CAKI-1 renal
MCF7 breast = system: MCF7 breast
RXF 393 renal = system: RXF 393 renal
HS 578T breast = system: HS 578T breast
SF-295 CNS = system: SF-295 CNS
OVCAR-8 ovarian = system: OVCAR-8 ovarian
UO-31 renal = system: UO-31 renal
NCI-H522 lung = system: NCI-H522 lung

SMILES: Cc1nc2cc(-c3nn(C(C)C)c4ncnc(N)c34)ccc2o1
- GI50 (HOP-92 NSCLC): 1.96 nM
- TGI (HOP-92 NSCLC): 34.4 nM
- GI50 (COLO 205 colon): 12.1 nM
- TGI (COLO 205 colon): 870 nM
- GI50 (A549 NSCLC): 12.7 nM
- TGI (A549 NSCLC): 310 nM
- GI50 (LOX IMVI melanoma): 14.1 nM
- TGI (LOX IMVI melanoma): 660 nM
- GI50 (MDA-MB-435): 8.54 nM
- TGI (MDA-MB-435): 98.2 nM
- GI50 (SK-MEL-5 melanoma): 15.8 nM
- TGI (SK-MEL-5 melanoma): 103 nM
- GI50 (HCC-2998 colon): 12.2 nM
- TGI (HCC-2998 colon): > 10000 nM
- GI50 (OVCAR-3 ovarian): 12.5 nM
- TGI (OVCAR-3 ovarian): 627 nM
- GI50 (MDA-MB-231 breast): 11.6 nM
- TGI (MDA-MB-231 breast): > 3930 nM
- GI50 (KM12 colon): 17.2 nM
- TGI (KM12 colon): 4980 nM
- GI50 (T-47D breast): 1.34 nM
- TGI (T-47D breast): 15.8 nM
- GI50 (NCI-H460 lung): 5.89 nM
- TGI (NCI-H460 lung): > 10000 nM
- GI50 (DU-145 prostate): 19.7 nM
- TGI (DU-145 prostate): > 10000 nM
- GI50 (NCI-H226 lung): 5.05 nM
- TGI (NCI-H226 lung): 191 nM
- GI50 (EKVX NSCLC): 14.1 nM
- TGI (EKVX NSCLC): 286 nM
- GI50 (SF-539 CNS): 22.7 nM
- TGI (SF-539 CNS): 169 nM
- GI50 (NCI/ADR-RES ovarian): 26.7 nM
- TGI (NCI/ADR-RES ovarian): 537 nM
- GI50 (SK-MEL-28 melanoma): 6.62 nM
- TGI (SK-MEL-28 melanoma): 125 nM
- GI50 (TK-10 renal): 6.25 nM
- TGI (TK-10 renal): 166 nM
- GI50 (UACC-62 melanoma): 3.93 nM
- TGI (UACC-62 melanoma): 44 nM
- GI50 (SF-268 CNS): 14.3 nM
- TGI (SF-268 CNS): 1840 nM
- GI50 (SN12C renal): 9.83 nM
- TGI (SN12C renal): > 10000 nM
- GI50 (RPMI-8226 leukemia): 3.42 nM
- TGI (RPMI-8226 leukemia): 385 nM
- GI50 (MOLT-4 leukemia): 20.6 nM
- TGI (MOLT-4 leukemia): > 3500 nM
- GI50 (HL-60(TB) leukemia): 68 nM
- TGI (HL-60(TB) leukemia): > 10000 nM
- GI50 (SNB-19 CNS): 41.2 nM
- TGI (SNB-19 CNS): > 10000 nM
- GI50 (786-0 renal): 13.6 nM
- TGI (786-0 renal): 287 nM
- GI50 (BT-549 breast): 3.51 nM
- TGI (BT-549 breast): 61 nM
- GI50 (A498 renal): 1.85 nM
- TGI (A498 renal): 6.89 nM
- GI50 (SW-620 colon): 36.6 nM
- TGI (SW-620 colon): > 10000 nM
- GI50 (UACC-257 melanoma): 11.1 nM
- TGI (UACC-257 melanoma): 112 nM
- GI50 (U251 CNS): 19.4 nM
- TGI (U251 CNS): 2350 nM
- GI50 (SNB-75 CNS): 3.09 nM
- TGI (SNB-75 CNS): 39.1 nM
- GI50 (PC-3 prostate): 6.5 nM
- TGI (PC-3 prostate): 598 nM
- GI50 (CCRF-CEM leukemia): 27 nM
- TGI (CCRF-CEM leukemia): > 10000 nM
- GI50 (HOP-62 NSCLC): 21.8 nM
- TGI (HOP-62 NSCLC): 415 nM
- GI50 (HCT-116 colon): 35 nM
- TGI (HCT-116 colon): > 10000 nM
- GI50 (NCI-H23 lung): 41.5 nM
- TGI (NCI-H23 lung): > 7000 nM
- GI50 (HT29 colon): 20.8 nM
- TGI (HT29 colon): > 5340 nM
- GI50 (MALME-3M melanoma): 3.47 nM
- TGI (MALME-3M melanoma): 78.7 nM
- GI50 (SK-OV-3 ovarian): 4.65 nM
- TGI (SK-OV-3 ovarian): 44.6 nM
- GI50 (SR leukemia): 16.8 nM
- TGI (SR leukemia): 8070 nM
- GI50 (HCT-15 colon): 12.6 nM
- TGI (HCT-15 colon): > 6080 nM
- GI50 (K-562 leukemia): 28.8 nM
- TGI (K-562 leukemia): > 10000 nM
- GI50 (IGROV1 ovarian): 3.41 nM
- TGI (IGROV1 ovarian): 55.9 nM
- GI50 (ACHN renal): 10.2 nM
- TGI (ACHN renal): 1220 nM
- GI50 (OVCAR-5 ovarian): 14.9 nM
- TGI (OVCAR-5 ovarian): 2180 nM
- GI50 (M14 melanoma): 9.73 nM
- TGI (M14 melanoma): 1210 nM
- GI50 (SK-MEL-2 melanoma): 21.3 nM
- TGI (SK-MEL-2 melanoma): 137 nM
- GI50 (OVCAR-4 ovarian): 6.46 nM
- TGI (OVCAR-4 ovarian): 97 nM
- GI50 (CAKI-1 renal): 4.9 nM
- TGI (CAKI-1 renal): 84.4 nM
- GI50 (MCF7 breast): 3.79 nM
- TGI (MCF7 breast): > 10000 nM
- GI50 (RXF 393 renal): 6.62 nM
- TGI (RXF 393 renal): 104 nM
- GI50 (HS 578T breast): 5.18 nM
- TGI (HS 578T breast): 47.3 nM
- GI50 (SF-295 CNS): 6.99 nM
- TGI (SF-295 CNS): 78.1 nM
- GI50 (OVCAR-8 ovarian): 19.8 nM
- TGI (OVCAR-8 ovarian): 431 nM
- GI50 (UO-31 renal): 2.11 nM
- TGI (UO-31 renal): 61.1 nM
- GI50 (NCI-H522 lung): 3.64 nM
- TGI (NCI-H522 lung): 787 nM

— PubChem BioAssay (NCI)
